Tests used:
[1] = test system: spinal cord injury (SCI) rat model; test: Spinal cord injury rat model: lesion volume; type: in vivo; details: for Percent change in Lesion volume: reduction vs Saline group (group 1), 0.5 ml/kg IV
Method: Animals: Female Sprague-Dawley rats (Harlan Sprague-Dawley, Indianapolis, Ind.), weighing 200-225 grams each were given free access to food and water before the experiment. The animals were anesthetized with ketamine (80 mg/kg) and xylazine (10 mg/kg). Brain temperatures were monitored using a rectal thermometer. The animals' body temperature was maintained at 37° C. by using a water jacketed heating pad. Brain temperature was monitored for 1 hour prior to injury to 6 hours following injury and was recorded at 30-minute intervals.
Experimental Groups. The spinal cord injury model utilized in the studies is described in detail (Rabchevsky et al, 2002; J. Neurosci. Res. 68:7). Young adult female Sprague-Dawley rats received a spinal cord contusion using the Precision Scientific Inc. pneumatic impactor. Female animals were used due to the paralysis associated with the injury and ease of voiding the bladder. Prior to surgery, rats were assigned to different treatment groups based on a randomized block design so that on any given surgery day all treatment groups were included. The rats were anesthetized with ketamine (80 mg/kg) and xylazine (10 mg/kg) before laminectomy was performed at the 10th thoracic vertebra (T10). The vertebral column was stabilized with angled clamps on the upper thoracic (T8) and lumber […] levels and the impactor with a tip diameter of 2 mm was delivered at approximately 50 kdynes onto the exposed, intact dura overlying the dorsal spinal cord. The impactor was immediately removed, the wound irrigated with saline and the muscle and skin openings sutured together.
Drug Administration. Compound was administered in the following paradigm: intravenous injection of saline or drug solutions 15 minutes following injury at 0.5 ml/kg (1×10^4, 5×10^4, and 10×10^4 TCDO). Drug was administered once per day starting at the indicated times and continued for 5 days. The saline control group was run in parallel with the drug-treated groups.
Histology. At the end of the study, the animals were killed and the spinal cord fixed in 4% paraformaldehyde. For analysis, 20 μm cryosections were stained for eriochrome cyanine (EC) to differentiate between white matter and cell bodies to calculate the amount of spared tissue through the lesion site. Immunocytochemical analysis was performed on the tissue. Tissue sparing was determined by computed image analysis from 10 evenly spaced sections through the injured T10 segment. The volume of necrotic tissue divided by the total cross-sectional volume is converted to a percentage and subtracted from 100%. Sections were taken for immunocytochemical analysis for macrophage infiltration
Each animal received induction of 5 i.v. injections for a total of 5×0.5 ml/kg of body weight. […]

[2] = SCI rat study: mortality; type: in vivo; details: 0.5 ml/kg IV once daily 5 days, 6 weeks
Source text: Mortality: There were no deaths in this study.

[3] = test system: spinal cord injury (SCI) rat model; test: Example 3: TCDO in the spinal cord injury rat model (lesion volume, BBB); type: in vivo
Method: Tetrachlorodecaoxygen (TCDO) was tested for efficacy in the spinal cord injury (SCI) rat model. In order to determine the efficacy of TCDO, rats were subjected to spinal cord injury and 6 weeks of recovery. Rats were injected intravenously with saline or TCDO solutions. Rats received 1 injection regiment: administered 15 minutes after injury. Animals were injected once daily for 5 days following the injury. Treated rats were examined after 1, 2, 3, 4, 5, and 6 weeks for drug behavioral effect. The animals were examined for changes in lesion volume (LV) and Basso, Beattie and Bresnahan (BBB) locomotor test. […] However, by 7 days, TCDO was not effective in reducing the LV or behavioral deficits.

[4] = test system: non-healing wounds; test: Example 4: topical TCDO versus saline in 271 patients with non-healing wounds; type: in vivo, human
Method: TCDO was investigated for its effects on non-healing wounds. In the study, 271 patients with non-healing wounds which included post-operative wounds, venous ulcers, arterial ulcers, post traumatic wounds and decubitus ulcers. The patients received either 5 mL of TCDO or saline twice daily applied by compress or directly to the wound for 21 days. […] Irrespective of wound types, wound surface decreased 2 to 4 times more quickly with TCDO treatment compared to saline. […] Adverse events were reported by 7% and 12% of patients treated with saline and TCDO respectively, the most frequent was slight pain.

[5] = test system: diabetic foot ulcer; test: Example 6: randomized controlled trial of TCDO as adjunct in diabetic foot ulcer; type: in vivo, human
Method: This randomized controlled trial was undertaken to evaluate the effect of TCDO as an adjunct to the standard treatment of diabetic foot ulcer. A total of 40 participants were randomized into 2 groups of 20. One group underwent standard therapy combined with infusions of TCDO, and 1 underwent standard therapy combined with placebo. The wound severity scores, which vary with the severity of infection and inflammation, necrotic and granulation tissues, and wound depth and area, were assessed weekly for 9 weeks.

[6] = 4 cycles of 0.5 mL TCDO/kg body weight per day
Method: Patients were then given 4 cycles of WF10 with the daily dose ranging from 0.5 mL/kg body weight to 1.5 mL/kg body weight.

[7] = test system: lipopolysaccharide (LPS) from E coli 055B5; details: TCDO 0.2 ml/kg iv twice during the day before iv LPS; without TCDO 346; cited from earlier work
[8] = test system: E. coli; details: phagocytosis assay; cited from earlier work
[9] = test system: monocytes and large granular lymphocytes; details: rats, cited from earlier work
[10] = test system: autoimmune disease with skin manifestations; details: cited from earlier work
[11] = test system: wounds; details: topical; superior to PVP-iodine treatment; cited from earlier work
[12] = test system: wounds; details: applied topically; cited from earlier work
[13] = test system: HIV; details: cited from earlier work
[14] = test system: T-lymphoma cell line ACH2; details: cited from earlier work
[15] = test system: monocytes, macrophages and lymphocytes; details: in vitro; cited from earlier work
[16] = test system: macrophages infiltrating a skin blister; details: human wound-healing model; cited from earlier work
[17] = test system: granulocytes, PBMCs, LGLs, erythropoiesis; details: rats, cited from earlier work
[18] = test system: hematopoietic stem cells; details: mice receiving sublethal doses of irradiation; cited from earlier work
[19] = test system: radiation-induced, chemical induced and metastatic malignant and benign tumors; details: cited from earlier work
[20] = test system: humoral and cellular immune responses; details: cited from earlier work
[21] = test system: activated microglia; details: Kindy et al.; cited from earlier work
[22] = target: gp120 envelope glycoprotein of HIV-1 (Human immunodeficiency virus type 1 group M subtype B, UniProt P04578); details: pre-incubation with TCDO; cited from earlier work
[23] = i.v. once daily 5 days, initiated 15 minutes following injury
[24] = after 9 weeks, subgroup analysis, p<0.01 vs placebo
[25] = one patient, four cycles at 0.5 mL/kg body weight
[26] = patients, two cycles at 0.5 mL/kg body weight

## Tetrachlorodecaoxygen [TCDO]
[1]; rat SCI, 1 × 10^4 units TCDO, 0.5 ml/kg IV once daily 5 days from 15 min after injury, day 42, mean ± SD
  Lesion volume (mm^3): did not show a significant reduction
[1]; 1 × 10^4 units TCDO
  Percent change in Lesion volume: 25%
[1]; 5 × 10^4 units TCDO
  Percent change in Lesion volume: 50%
[1]; 10 × 10^4 units TCDO
  Percent change in Lesion volume: 65%
[2]
  Mortality: no deaths
[3]; by 7 days
  Reduction of LV or behavioral deficits: not effective
[3]; [23]
  Decrease in lesion volume (LV): 49%
  Improvement of BBB score: 158%
[4]; 271 patients, 5 mL twice daily topically for 21 days
  Wound cleaning and formation of new tissue versus saline: significantly superior to saline
[4]; topical, 21 days, most frequent was slight pain
  Adverse events, patients reporting: 12%
[5]; after 9 weeks
  Wound depth and wound area versus placebo: not statistically significant
[5]; after 9 weeks, standard therapy plus TCDO infusions, n=20, p<0.05 vs placebo
  Wound severity score: 1.8±1.9
[5]; [24]
  Infection and inflammation score: 0.0±0.0
  Necrotic tissue score: 0.0±0.0
[5]; after 9 weeks, subgroup analysis, p<0.05 vs placebo
  Granulation tissue score: 0.1±0.3
[5]; throughout the observation period
  Severe adverse events: No severe adverse events were observed
[6]
  Hemolysis: no clinically relevant hemolysis
[7]
  LD50 value of LPS after TCDO: 518 mg
[8]
  TCDO dose to which the concentration of maximal ingestion of E. coli corresponds: 0.5 mL/kg-body weight
[9]; after 90 days of dosing
  Time for monocyte level to return to normal value after discontinuation: 30 days
[9]; daily for 90 days, 0.33 to 2.0 mL/kg body weight, within four days
  Blood levels of monocytes and large granular lymphocytes: greater than three times baseline value
[9]; sixteen days after discontinuation
  Monocyte level elevated over baseline: approximately 50%
[10]; [25]
  Treatment outcome, HIV associated psoriasis: successfully treated
  Treatment outcome, eczema: successfully treated
[10]; one patient, two cycles at 0.5 mL/kg body weight
  Treatment outcome, pustular psoriasis: successfully treated
[10]; [26]
  Treatment outcome, chronic actinic dermatitis: successfully treated
  Treatment outcome, pemphigus vulgaris: successfully treated
[11]
  Reduction in wound surface: 74.9%
[12]
  Effects of cortisone on wounds: reverse the effects of cortisone on wounds
[13]; HIV stocks supplemented with TCDO, concentration dependent
  Infectivity of HIV particles: markedly decreased the infectivity of HIV particles
[13]; in vitro
  Anti-HIV properties: displayed anti-HIV properties
[13]; persistently infected lymphocytic and monocytic cell lines, peripheral blood mononuclear cells
  Replication of HIV: did not affect the replication of HIV
[13]; simultaneous addition of TCDO
  Delayed virus spread of HIV in presence of suboptimal concentrations of zidovudine: could significantly be blocked
[14]
  Induction of chromosomally integrated HIV-1 provirus: failed to induce
[15]
  Antigen presentation: decrease antigen presentation
  Macrophage TNF-α expression: decrease macrophage tumor necrosis factor (TNF)-α expression
  Macrophage-fibroblast cooperation: enhance macrophage-fibroblast cooperation
  Oxidative burst in monocytes: stimulate an oxidative burst in monocytes
  Phagocytosis: increase phagocytosis
[16]
  Number of macrophages infiltrating a skin blister: increased the number of macrophages infiltrating a skin blister
[17]; after total body X-irradiation
  Erythropoiesis: stimulated erythropoiesis
[17]
  Proportion of granulocytes, PBMCs and LGLs: increased the proportion of granulocytes, peripheral blood monocytes (PBMCs) and large granular lymphocytes (LGLs)
[18]
  Regeneration of hematopoietic stem cells: stimulated regeneration of hematopoietic stem cells
[19]
  Antitumor effects: displayed direct antitumor effects
[20]; Jerne plaque test
  Humoral immune response: increased
[20]; footpad swelling test
  Cellular immune response: increased
[20]; spleen and thymus
  Proportions of T-helper and T suppressor/cytotoxic cells: altered proportions of T-helper and T suppressor/cytotoxic cells
[21]
  Production of proinflammatory cytokines and superoxide anion: suppresses the production of proinflammatory cytokines and superoxide anion
[22]
  Binding of gp120 of HIV-1 to cells: is blocked
